Data published in patent publication US20240360151A1 (SANOFI, priority 2023, published 2024).

Legend:
[1] = target: T1, NLRP3 inflammasome (Homo sapiens, UniProt Q96P20); assay: IL-1β secretion assay (NLRP3 IC50) in LPS-primed, nigericin-activated THP-1 cells, HTRF; type: cell-based; conditions: monocytic THP-1 cells; LPS 10 ng/mL 3 h priming, then compound + nigericin 10 μM 2 h; relative IC50, 10 concentrations, geometric mean
T1 construct: endogenous in cells; host or cells: THP-1 monocytic cells
T1 sequence (Q96P20 whole entry): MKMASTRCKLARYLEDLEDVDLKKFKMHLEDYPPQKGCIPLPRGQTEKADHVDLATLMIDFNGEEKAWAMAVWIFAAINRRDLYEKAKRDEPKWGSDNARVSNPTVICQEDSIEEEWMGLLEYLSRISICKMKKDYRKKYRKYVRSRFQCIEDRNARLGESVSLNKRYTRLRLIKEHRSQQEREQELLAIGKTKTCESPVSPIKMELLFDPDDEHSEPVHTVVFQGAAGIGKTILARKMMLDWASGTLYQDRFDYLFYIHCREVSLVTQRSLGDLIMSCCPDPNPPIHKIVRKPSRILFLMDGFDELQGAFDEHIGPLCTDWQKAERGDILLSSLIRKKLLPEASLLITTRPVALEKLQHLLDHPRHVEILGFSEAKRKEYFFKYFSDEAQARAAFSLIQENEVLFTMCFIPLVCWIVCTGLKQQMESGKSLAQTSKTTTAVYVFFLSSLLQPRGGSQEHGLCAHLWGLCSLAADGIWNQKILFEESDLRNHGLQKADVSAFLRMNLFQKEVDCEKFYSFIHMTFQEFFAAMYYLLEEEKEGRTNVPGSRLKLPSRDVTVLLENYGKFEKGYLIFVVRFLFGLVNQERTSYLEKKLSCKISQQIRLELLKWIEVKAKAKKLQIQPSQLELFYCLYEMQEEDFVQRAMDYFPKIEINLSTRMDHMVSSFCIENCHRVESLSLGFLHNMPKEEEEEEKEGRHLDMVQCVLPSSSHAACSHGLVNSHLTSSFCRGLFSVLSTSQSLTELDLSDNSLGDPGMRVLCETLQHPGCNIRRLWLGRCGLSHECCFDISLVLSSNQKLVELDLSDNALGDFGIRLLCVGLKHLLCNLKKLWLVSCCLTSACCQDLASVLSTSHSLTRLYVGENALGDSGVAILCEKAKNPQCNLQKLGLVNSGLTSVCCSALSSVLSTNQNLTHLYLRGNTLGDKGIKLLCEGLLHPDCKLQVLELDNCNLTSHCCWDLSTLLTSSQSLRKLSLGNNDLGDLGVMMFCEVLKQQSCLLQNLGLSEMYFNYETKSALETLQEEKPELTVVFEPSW
How it was run: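 THP-1 cells primed with LPS 10 ng/mL for 3 h at 37° C., then compound (10-point 1:3 dilution, 0.1% DMSO) added with 10 μM nigericin for 2 h. Supernatant IL-1β measured by HTRF; relative IC50 from a 4-parameter logistic fit, reported as geometric mean.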

[2] = system: NF-kB pathway (TNF-α secretion by THP-1 cells); assay: TNF-α secretion assay in LPS-stimulated THP-1 cells, Lumit immunoassay; type: cell-based, human; conditions: monocytic THP-1 cells, LPS 10 ng/mL, relative IC50, 10 concentrations, geometric mean
Procedure: Monocytic THP-1 cells were maintained in RPMI 1640 media (Gibco 21875)+10% FBS, (Gibco 10500)+1% penicillin/streptomycin (Gibco 15140-122). Cells were then plated at 40,000 cells per well in 384-well cell culture plates (Corning 3542) and maintained with RPMI1640 (Gibco 11835)+5% FBS, (Gibco 10500). Experimental compounds were prepared and added as described above. TNF-α secretion was triggered by the addition of 10 ng/mL LPS (invivoGen, tlrl-3pelps) and cells were incubated for 3 hours. TNF-α levels were monitored directly in the cells plate using an Lumit assay (Lumit TNFa-Human Immunoassay—Promega W6051) according to manufacturers' instructions.
Data were expressed as percentage of inhibition (I %) as compared to a maximum signal control containing no small molecule (I %=0%) according to the formula: 1%=(1−((Sample−Min))/((Max−Min)))×100, where: • Sample: Signal obtained in the presence of each compound tested, • Max: Maximum signal in the absence of compound added, • Min: Minimum or background signal obtained in the absence of activation signal.
Relative IC50 (IC50 rel) were obtained from a dose response curve with 10 concentrations. Final IC50 rels are expressed as the geometric mean.
Relative IC50 values were estimated with Biost@t-SPEED v2.4 internal software based on SAS system using the 4-parameter logistic model according to Ratkovsky and Reedy (D. A. Ratkovsky, T. J. Reedy, Choosing near-linear parameters in the four parameters logistic model radioligands and related assays. Biometrics, 42 (1986), 575-582): Y=A+C/((1+exp(−B*(log(X)−M)))), where: • A: Lower asymptote (BOTTOM), • A+C: Upper asymptote (TOP), • M: the logarithm of the concentration estimated at the inflexion point (the logarithm of the relative IC50), • B: Slope at the inflexion point of the curve.

SMILES	IC50 [1] [nM]	IC50 ([2]; Homo sapiens, THP-1, 3 h) [nM]	IC50 ([2]; 3 hours) [nM]
Cc1cc(C(F)(F)F)cc(O)c1-c1ccc(N2CCOC(CN(C)C)C2)nn1 (single isomer, unassigned) [Example 60, 2-[6-[-2-[(dimethylamino)methyl]morpholin-4-yl]pyridazin-3-yl]-3-methyl-5-(trifluoromethyl)phenol]	386	> 10000	–
Cc1cc(C)c(-c2ccc(N3C[C@H](CO)CC3=O)nn2)c(O)c1 (single isomer, unassigned) [Example 137]	411	> 10000	–
Cc1cc(C)c(-c2ccc(N3C[C@@H](CO)CC3=O)nn2)c(O)c1 (single isomer, unassigned) [Example 138]	441	> 10000	–
Cc1cc(C)c(-c2ccc(N3CC[C@H](CO)C3=O)nn2)c(O)c1 (single isomer, unassigned) [Example 139]	235	> 10000	–
Cc1cc(C)c(-c2ccc(N3CC[C@@H](CO)C3=O)nn2)c(O)c1 (single isomer, unassigned) [Example 140]	210	> 10000	–
CNC(=O)C[C@@H]1CN(c2ccc(-c3c(C)cc(C)cc3O)nn2)CCO1 (single isomer, unassigned) [Example 142]	360	> 10000	–
CNC(=O)C[C@H]1CN(c2ccc(-c3c(C)cc(C)cc3O)nn2)CCO1 (single isomer, unassigned) [Example 143]	221	> 10000	–
Cc1cc(C)c(-c2ccc(N3CCO[C@H](CC(N)=O)C3)nn2)c(O)c1 (single isomer, unassigned) [Example 146]	242	> 10000	–
Cc1cc(C)c(-c2ccc(N3CCO[C@@H](CC(N)=O)C3)nn2)c(O)c1 (single isomer, unassigned) [Example 147]	575	> 10000	–
CCC(=O)C1CN(c2ccc(-c3c(C)cc(C)cc3O)nn2)CCO1 (single isomer, unassigned) [Example 157]	314	> 10000	–
Cc1cc(C)c(-c2ccc(N3CCOC([C@@H](C)O)C3)nn2)c(O)c1 (single isomer, unassigned) [Example 180]	473	> 10000	–
Cc1cc(C)c(-c2ccc(N3CCO[C@H](CCO)C3)nn2)c(O)c1 (single isomer, unassigned) [Example 233]	164	> 10000	–
Cc1cc(C)c(-c2ccc(N3CCO[C@@H](CCO)C3)nn2)c(O)c1 (single isomer, unassigned) [Example 234]	355	> 10000	–
Oc1cc(Cl)cc(Cl)c1-c1ccc(N2CCO[C@@H](CF)C2)nn1 (single isomer, unassigned) [Example 237]	24	4120	–
Oc1cc(Cl)cc(Cl)c1-c1ccc(N2CCO[C@H](CF)C2)nn1 (single isomer, unassigned) [Example 238]	47	4290	–
Cc1cc(C(F)(F)F)cc(O)c1-c1ccc(N2CCO[C@H]3CCNC[C@H]32)nn1 (single isomer, unassigned) [Example 251]	21	> 10000	–
Cc1cc(C(F)(F)F)cc(O)c1-c1ccc(N2CCO[C@@H]3CCNC[C@@H]32)nn1 (single isomer, unassigned) [Example 252]	461	> 10000	–
CCN1CC[C@@H]2OCCN(c3ccc(-c4c(C)cc(C(F)(F)F)cc4O)nn3)[C@@H]2C1 (single isomer, unassigned) [Example 255]	249	> 10000	–
CCN1CC[C@H]2OCCN(c3ccc(-c4c(C)cc(C(F)(F)F)cc4O)nn3)[C@H]2C1 (single isomer, unassigned) [Example 256]	1	> 10000	–
Cc1cc(C(F)(F)F)cc(O)c1-c1ccc(N2CCO[C@@H]3CCN(C)C[C@@H]32)nn1 (single isomer, unassigned) [Example 260]	180	> 10000	–

SMILES	IC50 [1] [nM]	IC50 ([2]; Homo sapiens, THP-1, 3 h) [nM]	IC50 ([2]; 3 hours) [nM]
Cc1cc(C(F)(F)F)cc(O)c1-c1ccc(N2CCO[C@H]3CCN(C)C[C@H]32)nn1 (single isomer, unassigned) [Example 261]	1	> 10000	–
CC(=O)N1CC[C@H]2OCCN(c3ccc(-c4c(C)cc(C(F)(F)F)cc4O)nn3)[C@H]2C1 (single isomer, unassigned) [Example 262]	17	> 10000	–
CC(=O)N1CC[C@@H]2OCCN(c3ccc(-c4c(C)cc(C(F)(F)F)cc4O)nn3)[C@@H]2C1 (single isomer, unassigned) [Example 263]	180	> 10000	–
Cc1cc(C(F)(F)F)cc(O)c1-c1ccc(N2CC[C@H]3CN(C)C[C@H]32)nn1 (single isomer, unassigned) [Example 270]	493	> 10000	–
CC(=O)NCCC1CN(c2ccc(-c3c(C)cc(C(F)(F)F)cc3O)nn2)CCO1 (single isomer, unassigned) [Example 277, N-[2-[4-[6-[2-hydroxy-6-methyl-4-(trifluoromethyl)phenyl]pyridazin-3-yl]morpholin-2-yl]ethyl]acetamide]	51	–	2040
CC(=O)NCCC1CN(c2ccc(-c3c(C)cc(C(F)(F)F)cc3O)nn2)CCO1 (single isomer, unassigned) [Example 278, N-[2-[4-[6-[2-hydroxy-6-methyl-4-(trifluoromethyl)phenyl]pyridazin-3-yl]morpholin-2-yl]ethyl]acetamide]	50	–	> 10000
Cc1cc(C(F)(F)F)cc(O)c1-c1ccc(N2CCO[C@H](CF)C2)nn1 (single isomer, unassigned) [Example 284]	87	> 10000	–
Cc1cc(C(F)(F)F)cc(O)c1-c1ccc(N2CCC(CO)CC2=O)nn1 (single isomer, unassigned) [Example 293]	84	> 10000	–
CCN1CC[C@@H]2OCCN(c3ccc(-c4c(C)cc(Cl)cc4O)nn3)[C@@H]2C1 (single isomer, unassigned) [Example 312]	56	> 10000	–
CCN1CC[C@H]2OCCN(c3ccc(-c4c(C)cc(Cl)cc4O)nn3)[C@H]2C1 (single isomer, unassigned) [Example 313]	0.3	> 10000	–
Cc1cc(Cl)cc(O)c1-c1ccc(N2CCO[C@@H]3CCN(C)C[C@@H]32)nn1 (single isomer, unassigned) [Example 321]	1	> 10000	–
Cc1cc(C(F)(F)F)cc(O)c1-c1ccc(N2CCO[C@H]3CCN(C)C[C@@H]32)nn1 (single isomer, unassigned) [Example 343]	47	> 10000	–
Cc1cc(N2CC[C@@H]3CCN(C)C[C@@H]32)nnc1-c1ccc(C(F)(F)F)cc1O (single isomer, unassigned) [Example 366]	25	> 10000	–
Cc1cc(N2CC[C@H]3CCN(C)C[C@H]32)nnc1-c1ccc(C(F)(F)F)cc1O (single isomer, unassigned) [Example 367]	0.5	> 10000	–
Cc1ccc(-c2nnc(N3CC[C@@H]4CCN(C)C[C@@H]43)cc2C)c(O)c1 (single isomer, unassigned) [Example 374]	42	> 10000	–
Cc1ccc(-c2nnc(N3CC[C@H]4CCN(C)C[C@H]43)cc2C)c(O)c1 (single isomer, unassigned) [Example 375]	0.4	> 10000	–
Cc1cc(C)c(-c2ccc(N3CC[C@@H]4CCN(C)C[C@@H]43)nn2)c(O)c1 (single isomer, unassigned) [Example 384]	0.4	> 10000	–
CC(=O)N1CC[C@H]2OCCN(c3ccc(-c4c(C)cc(Cl)cc4O)nn3)[C@H]2C1 (single isomer, unassigned) [Example 397]	23	> 10000	–
Cc1cc(C(F)(F)F)cc(O)c1-c1ccc(N2CC[C@@H]3CCNC[C@@H]32)nn1 (single isomer, unassigned) [Example 407]	3	> 10000	–
Cc1cccc(O)c1-c1ccc(N2CC[C@H]3CCN(C)C[C@H]32)nn1 (single isomer, unassigned) [Example 416]	1	> 10000	–
